Measurements published in the NIST ThermoML archive (doi:10.1016/j.fluid.2016.09.021).

Conditions: Liquid, Vibrating tube method

CCCCCCC [heptane]
mass density [kg/m3]
Conditions | 293 K | 313 K | 333 K | 353 K | 373 K | 393 K | 413 K | 433 K | 448 K | 468 K
2100 kPa | 687.2 | 671.9 | 654.8 | 636.1 | 616.9 | 596.5 | 574.1 | 550.1 | 531.1 | 501.1
3000 kPa | 688.1 | 672.9 | 656 | 637.6 | 618.6 | 598.7 | 577 | 553.9 | 535.6 | 507.8
4000 kPa | 688.9 | 673.9 | 657.7 | 639.1 | 620.3 | 600.8 | 579.6 | 557.5 | 539.8 | 513.4
5000 kPa | 689.8 | 674.8 | 658.4 | 640.4 | 622 | 602.8 | 582.1 | 560.7 | 543.6 | 518.6
10000 kPa | 694 | 679.4 | 663.9 | 647.1 | 629.9 | 612.2 | 593.6 | 574.6 | 560 | 539.1
20000 kPa | 701.8 | 688 | 673.8 | 658.5 | 643.2 | 627.8 | 611.9 | 595.4 | 583 | 566.5
30000 kPa | 708.7 | 695.4 | 682.3 | 668 | 654.1 | 640.2 | 626 | 611.5 | 600.3 | 586.2
40000 kPa | 714.8 | 702.2 | 689.5 | 676.7 | 663.6 | 650.8 | 637.6 | 624.3 | 614.4 | 601.3
49900 kPa | 720.8 | 708.5 | 696.5 | 684.5 | 672 | 659.9 | 647.8 | 635.2 | 626.2 | 614.2
59900 kPa | 726.4 | 714.3 | 703.1 | 691.3 | 679.6 | 668.3 | 656.9 | 644.7 | 636.6 | 625.3
69900 kPa | 731.6 | 720 | 708.9 | 697.9 | 686.7 | 675.9 | 664.7 | 653.5 | 646.2 | 635.2
79900 kPa | 736.8 | 725.2 | 714.5 | 703.8 | 693.3 | 682.9 | 672.4 | 661.6 | 654.4 | 644.1
89900 kPa | 741.5 | 730.3 | 720 | 709.7 | 699.4 | 689.5 | 679.3 | 669 | 661.8 | 652.3
99900 kPa | 746.1 | 735.1 | 725.2 | 715 | 705.2 | 695.7 | 685.8 | 676 | 669.2 | 659.9
109900 kPa | 750.6 | 739.9 | 729.8 | 720.3 | 710.7 | 701.4 | 692.2 | 682.3 | 675.8 | 667.2
119900 kPa | 754.9 | 744.3 | 734.7 | 725.3 | 716 | 706.8 | 698 | 688.5 | 682.3 | 673.9
129900 kPa | 759.2 | 748.7 | 739.3 | 730.1 | 720.9 | 712.1 | 703.6 | 694.3 | 688.4 | 679.9
134900 kPa | 761.2 | 751 | 741.4 | 732.4 | 723.3 | 714.7 | 706.2 | 697.2 | 691.4 | 682.8
137400 kPa | 762.2 | 751.9 | 742.6 | 733.5 | 724.5 | 715.8 | 707.4 | 698.6 | 692.6 | 684.3
